Patent publication US10258634B2, “Ciclesonide for the treatment of airway disease in horses” (Boehringer Ingelheim Vetmedica GmbH, priority 2012, dated 2019)

Columns and labels:
RAO horses [1] = experiment: 1st ciclesonide study: moldy hay challenge, lung function variables and breathing effort score; assay type: in vivo; conditions: after 14 days
RAO horses [2] = experiment: 1st ciclesonide study: moldy hay challenge, serum cortisol; assay type: in vivo; conditions: any ciclesonide group (450/900/1800 μg/horse twice daily); any measured time point
RAO horses [3] = experiment: 2nd ciclesonide study: moldy hay challenge, lung function variables and weighted clinical score; assay type: in vivo
Source text: (§1) The commercially available […]® is used in the study.

RAO horses [4] = experiment: 2nd ciclesonide study: moldy hay challenge, serum cortisol; assay type: in vivo; conditions: any ciclesonide group (1687.5/2700 A/2700 B μg twice daily); any measured time point
Source text: as §1

RAO horses [5] = experiment: Segmented neutrophil and lymphocyte counts in the 1st and 2nd ciclesonide studies; assay type: in vivo; conditions: for Lymphocytes / Segmented neutrophils: mean, n=8
Experimental: as §1
The segmented neutrophil counts and the lymphocyte counts are determined in the studies above: ciclesonide treatment versus dexamethasone treatment.
Concentration of segmented neutrophils and lymphocytes on day (D): D0, D14 and D21 in the treatment groups of dexamethasone and different doses of ciclesonide (n=8) (mean (SEM)

RAO horses [6] = experiment: 3rd ciclesonide study: moldy hay challenge, lung function variables; assay type: in vivo; conditions: ciclesonide 2700 μg twice daily / 3712.5 μg once daily morning / 3712.5 μg once daily evening, inhalation, nozzle B; after 14 days
Source text: The horses are challenged by exposure to moldy hay to throughout the whole study.

[7] = Plasma level of ciclesonide and C21-C21-desisobutyrylciclesonide (HPLC-MS/MS), 2nd ciclesonide study; conditions: for concentration at 0 min / concentration at 10 min / concentration at 30 min / concentration at 1 h / concentration at 2 h / concentration at 4 h: horse, plasma, inhaled
[8] = 450 μg ciclesonide/horse twice daily 14 days per inhalation (nozzle A), 1st study, D 0
[9] = 450 μg ciclesonide/horse twice daily 14 days per inhalation (nozzle A), 1st study, D 14
[10] = 450 μg ciclesonide/horse twice daily 14 days per inhalation (nozzle A), 1st study, D 21
[11] = 900 μg ciclesonide/horse twice daily 14 days per inhalation (nozzle A), 1st study, D 0
[12] = 900 μg ciclesonide/horse twice daily 14 days per inhalation (nozzle A), 1st study, D 14
[13] = 900 μg ciclesonide/horse twice daily 14 days per inhalation (nozzle A), 1st study, D 21
[14] = 1687.5 μg ciclesonide/horse twice daily 14 days per inhalation (nozzle B), 2nd study, D 0
[15] = 1687.5 μg ciclesonide/horse twice daily 14 days per inhalation (nozzle B), 2nd study, D 14
[16] = 1687.5 μg ciclesonide/horse twice daily 14 days per inhalation (nozzle B), 2nd study, D 21
[17] = 1800 μg ciclesonide/horse twice daily 14 days per inhalation (nozzle A), 1st study, D 0
[18] = 1800 μg ciclesonide/horse twice daily 14 days per inhalation (nozzle A), 1st study, D 14
[19] = 1800 μg ciclesonide/horse twice daily 14 days per inhalation (nozzle A), 1st study, D 21
[20] = 2700 μg ciclesonide A (nozzle A)/horse twice daily 14 days per inhalation, 2nd study, D 0
[21] = 2700 μg ciclesonide A (nozzle A)/horse twice daily 14 days per inhalation, 2nd study, D 14
[22] = 2700 μg ciclesonide A (nozzle A)/horse twice daily 14 days per inhalation, 2nd study, D 21
[23] = 2700 μg ciclesonide B (nozzle B)/horse twice daily 14 days per inhalation, 2nd study, D 0
[24] = 2700 μg ciclesonide B (nozzle B)/horse twice daily 14 days per inhalation, 2nd study, D 14
[25] = 2700 μg ciclesonide B (nozzle B)/horse twice daily 14 days per inhalation, 2nd study, D 21
[26] = 1st ciclesonide study, after administration of ciclesonide 450/900/1800 μg twice daily
[27] = 2nd ciclesonide study, after administration of ciclesonide 1687.5/2700 μg twice daily
[28] = 1687.5 μg/horse, Ciclesonide concentration (plasma), ciclesonide 1687.5 μg (nozzle B) twice daily per inhalation, day 1
[29] = 1687.5 μg/horse, Ciclesonide concentration (plasma), ciclesonide 1687.5 μg (nozzle B) twice daily per inhalation, day 11
[30] = 2700 μg/horse, Ciclesonide concentration (plasma), ciclesonide 2700 μg A (nozzle A) twice daily per inhalation, day 1
[31] = 2700 μg/horse, Ciclesonide concentration (plasma), ciclesonide 2700 μg A (nozzle A) twice daily per inhalation, day 11
[32] = 2700 μg/horse, Ciclesonide concentration (plasma), ciclesonide 2700 μg B (nozzle B) twice daily per inhalation, day 1
[33] = 2700 μg/horse, Ciclesonide concentration (plasma), ciclesonide 2700 μg B (nozzle B) twice daily per inhalation, day 11

serum cortisol levels (RAO horses [2]): no significant reduction
serum cortisol levels (RAO horses [4]): no significant reduction
Lymphocytes (RAO horses [5]; [8]): 1.96e+09 L⁻¹
Segmented neutrophils (RAO horses [5]; [8]): 4.66e+09 L⁻¹
Lymphocytes (RAO horses [5]; [9]): 1.97e+09 L⁻¹
Segmented neutrophils (RAO horses [5]; [9]): 4.98e+09 L⁻¹
Lymphocytes (RAO horses [5]; [10]): 2.17e+09 L⁻¹
Segmented neutrophils (RAO horses [5]; [10]): 5.48e+09 L⁻¹
Lymphocytes (RAO horses [5]; [11]): 1.85e+09 L⁻¹
Segmented neutrophils (RAO horses [5]; [11]): 5.24e+09 L⁻¹
Lymphocytes (RAO horses [5]; [12]): 2.03e+09 L⁻¹
Segmented neutrophils (RAO horses [5]; [12]): 4.43e+09 L⁻¹
Lymphocytes (RAO horses [5]; [13]): 1.94e+09 L⁻¹
Segmented neutrophils (RAO horses [5]; [13]): 4.91e+09 L⁻¹
Lymphocytes (RAO horses [5]; [14]): 1.93e+09 L⁻¹
Segmented neutrophils (RAO horses [5]; [14]): 4.51e+09 L⁻¹
Lymphocytes (RAO horses [5]; [15]): 1.94e+09 L⁻¹
Segmented neutrophils (RAO horses [5]; [15]): 5.22e+09 L⁻¹
Lymphocytes (RAO horses [5]; [16]): 2.04e+09 L⁻¹
Segmented neutrophils (RAO horses [5]; [16]): 4.55e+09 L⁻¹
Lymphocytes (RAO horses [5]; [17]): 1.95e+09 L⁻¹
Segmented neutrophils (RAO horses [5]; [17]): 4.6e+09 L⁻¹
Lymphocytes (RAO horses [5]; [18]): 1.96e+09 L⁻¹
Segmented neutrophils (RAO horses [5]; [18]): 5.41e+09 L⁻¹
Lymphocytes (RAO horses [5]; [19]): 2.06e+09 L⁻¹
Segmented neutrophils (RAO horses [5]; [19]): 4.93e+09 L⁻¹
Lymphocytes (RAO horses [5]; [20]): 2.04e+09 L⁻¹
Segmented neutrophils (RAO horses [5]; [20]): 4.91e+09 L⁻¹
Lymphocytes (RAO horses [5]; [21]): 2.14e+09 L⁻¹
Segmented neutrophils (RAO horses [5]; [21]): 4.85e+09 L⁻¹
Lymphocytes (RAO horses [5]; [22]): 2.01e+09 L⁻¹
Segmented neutrophils (RAO horses [5]; [22]): 4.41e+09 L⁻¹
Lymphocytes (RAO horses [5]; [23]): 1.8e+09 L⁻¹
Segmented neutrophils (RAO horses [5]; [23]): 4.23e+09 L⁻¹
Lymphocytes (RAO horses [5]; [24]): 1.74e+09 L⁻¹
Segmented neutrophils (RAO horses [5]; [24]): 4.75e+09 L⁻¹
Lymphocytes (RAO horses [5]; [25]): 2.01e+09 L⁻¹
Segmented neutrophils (RAO horses [5]; [25]): 4.84e+09 L⁻¹
counts of lymphocytes (RAO horses [5]; [26]): no change
counts of segmented neutrophils (RAO horses [5]; [26]): no or minor increase
counts of lymphocytes (RAO horses [5]; [27]): no change
counts of segmented neutrophils (RAO horses [5]; [27]): no or minor increase
alteration in the immune system measured by neutrophilia and lymphopenia (RAO horses [5]; treatment for two weeks with different dose levels of ciclesonide): no alteration is observed
Ciclesonide concentration (plasma) ([7]; ciclesonide 1687.5 μg (nozzle B) twice daily per inhalation, day 11, 2 h): <0.500 nmol/L
Ciclesonide concentration (plasma) ([7]; ciclesonide 1687.5 μg (nozzle B) twice daily per inhalation, day 11, 4 h): <0.500 nmol/L
concentration at 0 min [7, 28]: < 0.5 nM
concentration at 10 min [7, 28]: 0.87 nM
concentration at 30 min [7, 28]: < 0.5 nM
concentration at 1 h ([7]; 1687.5 μg/horse, Ciclesonide concentration (plasma), ciclesonide 1687.5 μg (nozzle B) twice daily per inhalation, day 1, 1 h): < 0.5 nM
concentration at 2 h ([7]; 1687.5 μg/horse, Ciclesonide concentration (plasma), ciclesonide 1687.5 μg (nozzle B) twice daily per inhalation, day 1, 2 h): < 0.5 nM
concentration at 4 h ([7]; 1687.5 μg/horse, Ciclesonide concentration (plasma), ciclesonide 1687.5 μg (nozzle B) twice daily per inhalation, day 1, 4 h): < 0.5 nM
concentration at 0 min [7, 29]: < 0.5 nM
concentration at 10 min [7, 29]: 0.97 nM
concentration at 30 min [7, 29]: < 0.5 nM
concentration at 1 h ([7]; 1687.5 μg/horse, Ciclesonide concentration (plasma), ciclesonide 1687.5 μg (nozzle B) twice daily per inhalation, day 11, 1 h): < 0.5 nM
concentration at 0 min [7, 30]: < 0.5 nM
concentration at 10 min [7, 30]: 1.19 nM
concentration at 30 min [7, 30]: 0.51 nM
concentration at 1 h ([7]; 2700 μg/horse, Ciclesonide concentration (plasma), ciclesonide 2700 μg A (nozzle A) twice daily per inhalation, day 1, 1 h): < 0.5 nM
concentration at 2 h ([7]; 2700 μg/horse, Ciclesonide concentration (plasma), ciclesonide 2700 μg A (nozzle A) twice daily per inhalation, day 1, 2 h): < 0.5 nM
concentration at 4 h ([7]; 2700 μg/horse, Ciclesonide concentration (plasma), ciclesonide 2700 μg A (nozzle A) twice daily per inhalation, day 1, 4 h): < 0.5 nM
concentration at 0 min [7, 31]: < 0.5 nM
concentration at 10 min [7, 31]: 1.02 nM
concentration at 30 min [7, 31]: 0.63 nM
concentration at 1 h ([7]; 2700 μg/horse, Ciclesonide concentration (plasma), ciclesonide 2700 μg A (nozzle A) twice daily per inhalation, day 11, 1 h): < 0.5 nM
concentration at 2 h ([7]; 2700 μg/horse, Ciclesonide concentration (plasma), ciclesonide 2700 μg A (nozzle A) twice daily per inhalation, day 11, 2 h): < 0.5 nM
concentration at 4 h ([7]; 2700 μg/horse, Ciclesonide concentration (plasma), ciclesonide 2700 μg A (nozzle A) twice daily per inhalation, day 11, 4 h): < 0.5 nM
concentration at 0 min [7, 32]: < 0.5 nM
concentration at 10 min [7, 32]: 1.16 nM
concentration at 30 min [7, 32]: 0.72 nM
concentration at 1 h ([7]; 2700 μg/horse, Ciclesonide concentration (plasma), ciclesonide 2700 μg B (nozzle B) twice daily per inhalation, day 1, 1 h): < 0.5 nM
concentration at 2 h ([7]; 2700 μg/horse, Ciclesonide concentration (plasma), ciclesonide 2700 μg B (nozzle B) twice daily per inhalation, day 1, 2 h): < 0.5 nM
concentration at 4 h ([7]; 2700 μg/horse, Ciclesonide concentration (plasma), ciclesonide 2700 μg B (nozzle B) twice daily per inhalation, day 1, 4 h): < 0.5 nM
concentration at 0 min [7, 33]: < 0.5 nM
concentration at 10 min [7, 33]: 1.38 nM
concentration at 30 min [7, 33]: 0.63 nM
concentration at 1 h ([7]; 2700 μg/horse, Ciclesonide concentration (plasma), ciclesonide 2700 μg B (nozzle B) twice daily per inhalation, day 11, 1 h): < 0.5 nM
concentration at 2 h ([7]; 2700 μg/horse, Ciclesonide concentration (plasma), ciclesonide 2700 μg B (nozzle B) twice daily per inhalation, day 11, 2 h): < 0.5 nM
concentration at 4 h ([7]; 2700 μg/horse, Ciclesonide concentration (plasma), ciclesonide 2700 μg B (nozzle B) twice daily per inhalation, day 11, 4 h): < 0.5 nM
concentration at 1 h ([7]; concentration of ciclesonide in plasma, samples taken 1 h after drug administration, below lower limit of quantification): < 0.5 nM
conversion of the prodrug into the effective molecule C21-C21-desisobutyrylciclesonide ([7]; in horses (example 5)): can be converted
SMILES: CC(C)C(=O)OCC(=O)[C@@]12O[C@H](C3CCCCC3)O[C@@H]1C[C@H]1[C@@H]3CCC4=CC(=O)C=C[C@]4(C)[C@H]3[C@@H](O)C[C@@]12C [ciclesonide, (11β,16α)-16,17-[[(R)-Cyclohexylmethylene]bis(oxy)]-11-hydroxy-21-(2-methyl-1-oxopropoxy)pregna-1,4-diene-3,20-dione]
ΔPL and EL compared to pretreatment values (RAO horses [1]; ciclesonide 1800 μg/horse ex RESPIMAT twice daily per inhalation, p=0.0005 and p=0.0004): statistically significant reduction
ΔPL and EL, difference to dexamethasone group (RAO horses [1]; ciclesonide 1800 μg/horse ex RESPIMAT twice daily): no significant difference
all lung function variables (ΔPL, RL, EL) compared to pretreatment values (RAO horses [3]; all ciclesonide groups (1687.5 μg nozzle B/2700 μg nozzle A/2700 μg nozzle B twice daily), after 14 days, p=0.0009 to p<0.0001): significantly reduced
lung function variables, difference to dexamethasone group (RAO horses [3]; all ciclesonide groups (1687.5/2700 A/2700 B μg twice daily), after 7 or 14 days): no significant difference
weighted clinical score compared to pretreatment values (RAO horses [3]; all three ciclesonide groups (1687.5/2700 A/2700 B μg twice daily), after 14 days, p=0.0001 to p<0.0001): significantly reduced
weighted clinical score, difference to dexamethasone group (RAO horses [3]; ciclesonide treatment groups (1687.5/2700 A/2700 B μg twice daily), after 14 days): no significant difference
lung function variables (ΔPL, RL, EL) compared to pretreatment values and to placebo group (RAO horses [6]): significantly reduced
